{"source": "patent US20230158047A1", "about": "“METHODS AND COMPOSITIONS FOR TREATING PROSTATE CANCER” (Tavanta Therapeutics Hungary Incorporated, priority 2020, published 2023)", "origin": "cited, not measured here", "system": "PSA levels", "settings": "phase 3, patients who failed prior chemotherapy with taxanes"}
{"molecule": "CC(=O)O[C@H]1CC[C@@]2(C)C(=CC[C@@H]3[C@@H]2CC[C@]2(C)C(c4cccnc4)=CC[C@@H]32)C1", "note": "[abiraterone acetate, 3β-acetoxy-17-(3-pyridyl)-androsta-5,16-diene]", "values": [{"measurement": "patients with at least a 50% decline from baseline in PSA levels", "value": 38, "unit": "%"}]}
